# Results as given in patent US8349835B2, “Aromatic ring fused triazine derivatives and uses thereof” (Shenyang Pharmaceutical University, priority 2008, dated 2013).
# Legend:
# [1] = system: Rat aortic ring; test: Rat Aortic Ring Assay; type: cell-based; conditions: for Rat Aortic Ring Assay (10 ug/ml), result in words: observed on the sixth day; for inhibition at 10 µg/mL: Rattus norvegicus, 10 ug/ml, compared with blank control, sixth day
# From the text: Rat Aortic Ring Assay • 1) 6 week old SD […] (Sprague Dawley) were selected for the experiments. Cleaned abdominal skin with 75% ethanol to disinfect, and then anesthetized the mice with ether, • 2) Carefully removed the abdominal aortas and transferred the aortas to normal saline. Excessive vascular tissues were carefully removed with scissors. • 3) The aortas were rinsed with normal saline until no blood stain remained. • 4) Sectioned the aortas into one millimeter depth arterial slices with ophthalmological scissors. • 5) Add 50 μL pre-thawed Matrigel to each well of the pre-cooled 96 well cell culture plates, and embedded the ring-shaped mouse aortas in collagen gel. • 6) Incubated for 60 minutes at 37° C. to solidificate the gel. • 7) Added DMEM culture solution containing 10% FBS, along with different concentrations of the selected compounds into the wells and cultured in the incubator. Every compound was repeated in no less than 3 wells. • 8) Replaced with the fresh medium and changed the medicine once on the third day. • 9) Took out the pates on the sixth day, and observed the vascular growth with Microscope (OLYMPUS, DP70, Japan) and took photographs(×100). Randomly chose 3 arterial rings to photograph and calculated the area covered by micro-vascular with Image Pro Plus software. The inhibition rate is calculated as:
# [formula] • Evaluation criteria: ⋆inhibition rate[…]; ⋆⋆inhibition rate 60-90%; ⋆⋆⋆inhibition rate>90%.
# [2] = system: chorioallantoic membrane vessels; test: Activity test by chick chorioallantoic membrane method; type: in vivo; conditions: 5 uL medicine on cellulose membrane, chick embryo, 2 days
# Protocol: After the shell membrane became wet, tore it open with ophthalmological tweezers so to expose the chorioallantoic membrane. • 6) Added 5 uL of selected medicine to a 0.5×0.5 cm cellulose membrane sterilized by high pressure, then set the membrane on the part of the chorioallantoic membrane with fewer vessels • 7) Closed the window, and put the embryos back into the hatch box to hatch for 2 days. • 8) Opened the transparent tape, and then opened the mixed cellulose membrane lightly with a tweezers. Measured the avascular area and took photographs.
# [3] = molecular target: VEGFR-2 (Homo sapiens, UniProt P35968); test: VEGFR-2 inhibition rate test (kinase assay kit, colorimetric ELISA); conditions: concentration not given
# [4] = system: Microvascular Endothelial Cells (MVEC); test: MTT growth inhibition of MVEC; type: cell-based; conditions: Endothelial cell, 96 h, 4 days culture with drug, read-out: IG50 on inhibiting growth of MVEC
# Protocol: In Vitro Anti-Tumor Activity Test
# Put cell suspension into centrifugal tubes with a pipette under sterile conditions, then the cell suspension was centrifuged for 3 minutes at 1300 rpm. Discarded the supernatant lightly and added fresh culture medium. Mixed the cells by pipetting, then transferred the cells into culture flasks, and put them into the CO2 incubator. Changed the culture medium once after 24 hours.
# Human prostate cancer cells (DU145, PC-3) were cultured in a medium containing RPMI1640 basic medium supplemented with 10% heat-inactivated FBS, 100 IU/mL penicillin, 100 μg/mL streptomycin and 1 mmol/L L-glutamine. Human breast carcinoma cells (T47D, MDA-MB231) were cultured in a medium containing RPM11640 basic medium supplemented with 10% heat-inactivated FBS, 5 μg/mL insulin, 100 IU/mL penicillin, 100 μg/mL streptomycin and 1 mmol/L L-glutamine. Human breast carcinoma cells (MCF-7) were cultured in a medium containing DMEM basic medium supplemented with 10% heat-inactivated FBS, 5 μg/mL insulin, 100 IU/mL penicillin, 100 μg/mL streptomycin and […]. Murine Lewis lung cancer cells (LL/2), murine melanoma cells (B16FD) and Microvascular Endothelial Cells (MVEC) were cultured in a medium containing DMEM basic medium supplemented with 10% heat-inactivated FBS, 4.5 g/L glucose, 1.5 g/L NaHCO3, 100 IU/mL penicillin, 100 μg/mL streptomycin and 4 mmol/L L-glutamine. All these cell lines were incubated at 37° C. biochemical incubator with 5% CO2 saturated humidity.
# After resuscitation, the cells were passed for 2-3 generations till they became stable, then they were used for the experiments. Each passage was based on the standard that all cells were spread over the bottoms of culture flasks.
# Cells were digested off from the bottoms of culture flasks with trypsin (0.25%). The cell dissociation buffer was transferred into centrifuge tubes, added medium to stop the digestion, and centrifuged for 3 minutes at 1300 rpm. Discarded the supernatant lightly and added fresh culture medium (5 mL). Mixed the cells by pipetting, then added 10 μL of the cell suspension into the cell counting plate, and adjusted the cell concentration to 2×10^4 cells/mL. Added 100 μL of the cell suspension to all wells on the 96 well plates, except A1 well as the blank control. Put the plates into the biochemical incubator for 24 hours and to make sure the cells grew along the walls.
# The drugs were dissolved in 80 mmol/L DMSO first, and then diluted the drugs with ethanol to 8 mmol/L. The solution was further diluted with the culture medium to different concentrations as 160 μmol/L, 120 μmol/L, 80 μmol/L, 40 μmol/L, 20 μmol/L and 10 μmol/L. Added 100 μL of the drug solution to each well on the 96 well plates. Therefore, the final concentrations of the drugs that were added to the cells were 80 μmol/L, 40 μmol/L, 20 μmol/L, 10 μmol/L and 5 μmol/L, and each concentration were repeated in three parallel wells. Put the culture plates into the biochemical incubator to culture continuously for 4 days.
# Added 50 μL MTT liquids (2 mg/mL) into each well, put the culture plates into the biochemical incubator for 4 h, discarded MTT liquids (TCC), added 200 μL DMSO, then oscillated for 10 minutes on the magnetic oscillator to make sure that the survived cells and the reaction product of MTT were fully dissolved. Detected and recorded the absorbance (OD) values of each well at the wavelength of 570 nm using the microplate reader. The OD values of cells without tested drugs were used as control. The cell growth inhibition rates under each drug concentration were calculated by the following formula. […] Inhibition rate of growth(%)=(1−The absorbance(OD)of cells with tested drugs/The absorbance(OD)of the blank control group)×100%
# The absorbance (OD) of cells with tested drugs: OD value is measured with the test drugs.
# The absorbance (OD) of the blank control group: OD value is measured without the test drugs. […]
# Sequence of VEGFR-2 (P35968 20-1356): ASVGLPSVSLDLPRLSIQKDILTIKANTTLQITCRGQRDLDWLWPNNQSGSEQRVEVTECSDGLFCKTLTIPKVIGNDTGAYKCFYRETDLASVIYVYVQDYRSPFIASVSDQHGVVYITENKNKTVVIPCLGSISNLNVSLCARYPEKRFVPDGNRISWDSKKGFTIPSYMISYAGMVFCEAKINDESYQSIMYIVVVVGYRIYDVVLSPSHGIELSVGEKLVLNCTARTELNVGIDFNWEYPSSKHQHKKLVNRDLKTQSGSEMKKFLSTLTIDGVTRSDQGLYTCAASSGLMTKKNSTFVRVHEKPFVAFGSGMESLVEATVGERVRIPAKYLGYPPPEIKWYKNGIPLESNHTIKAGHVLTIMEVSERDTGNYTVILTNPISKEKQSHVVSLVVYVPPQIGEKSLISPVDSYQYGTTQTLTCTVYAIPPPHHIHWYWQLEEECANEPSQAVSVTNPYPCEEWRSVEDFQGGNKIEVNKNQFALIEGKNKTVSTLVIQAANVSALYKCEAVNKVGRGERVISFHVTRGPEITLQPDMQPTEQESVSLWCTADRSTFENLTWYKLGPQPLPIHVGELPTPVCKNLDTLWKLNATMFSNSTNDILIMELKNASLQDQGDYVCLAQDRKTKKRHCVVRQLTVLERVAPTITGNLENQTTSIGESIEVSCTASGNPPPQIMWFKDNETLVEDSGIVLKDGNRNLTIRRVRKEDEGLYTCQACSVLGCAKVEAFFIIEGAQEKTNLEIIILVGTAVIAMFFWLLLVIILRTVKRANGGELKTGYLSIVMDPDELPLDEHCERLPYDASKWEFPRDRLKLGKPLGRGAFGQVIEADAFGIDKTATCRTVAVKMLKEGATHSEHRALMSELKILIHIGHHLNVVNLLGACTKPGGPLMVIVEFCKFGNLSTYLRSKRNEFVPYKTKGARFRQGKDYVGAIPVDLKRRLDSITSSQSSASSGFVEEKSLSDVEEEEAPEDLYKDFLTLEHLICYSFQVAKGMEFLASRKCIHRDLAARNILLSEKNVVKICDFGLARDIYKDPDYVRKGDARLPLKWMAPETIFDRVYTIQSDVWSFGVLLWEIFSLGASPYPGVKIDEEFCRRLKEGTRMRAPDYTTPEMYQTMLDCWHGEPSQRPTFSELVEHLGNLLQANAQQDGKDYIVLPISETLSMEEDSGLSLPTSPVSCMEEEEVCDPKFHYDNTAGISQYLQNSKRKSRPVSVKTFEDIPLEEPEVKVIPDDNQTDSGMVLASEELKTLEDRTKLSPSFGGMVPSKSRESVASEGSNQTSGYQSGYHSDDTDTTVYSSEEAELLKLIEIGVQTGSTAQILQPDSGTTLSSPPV
Kinase inhibition rate (VEGFR-2) [3],Compound,"Rat Aortic Ring Assay (10 ug/ml), result in words [1]",The inhibitory effect on the growth of chorioallantoic membrane vessels [2],inhibition at 10 µg/mL [1] [%],IC50 [4] [µM]
12.83,"Clc1cccc(Nc2nnnc3ccccc23)c1 [Example 4, 4-(3-chloroanilino)-benzo[d][1,2,3]triazine]",,The vascular growth is abundant,,
−33.42,"FC(F)(F)Oc1ccc(Nc2nnnc3ccccc23)cc1 [Example 6, 4-(4-trifluoromethoxyanilino)-benzo[d][1,2,3]triazine]",No significant inhibition,"One of the two samples exhibits significant fracture,",,
−17.64,"FC(F)(F)Oc1cccc(Nc2nnnc3ccccc23)c1 [Example 7, 4-(3-trifluoromethoxyanilino)-benzo[d][1,2,3]triazine]",No significant inhibition,Two samples exhibit significant inhibition ring,,
46.67,"CCOc1cc2nnnc(Nc3ccc(F)c(Cl)c3)c2cc1OC [Example 39, 6-methoxy-7-ethoxy-4-(3-chloro-4-fluoroanilino)-benzo[d][1,2,3]triazine]",No significant inhibition,"One embryo is dead, and the other exhibits no significant inhibition",,
−9.35,"CCCCCOc1cc2nnnc(Nc3cccc(C(F)(F)F)c3)c2cc1OC [Example 50, 6-methoxy-7-pentyloxy-4-(3-trifluoromethylanilino)-benzo[d][1,2,3]triazine]",No significant inhibition compared with the blank control,One of the two samples exhibits inhibition ring.,,
−18.71,"CCCCCOc1cc2nnnc(Nc3ccc(C(F)(F)F)cc3)c2cc1OC [Example 51, 6-methoxy-7-pentyloxy-4-(4-trifluoromethylanilino)-benzo[d][1,2,3]triazine]",No significant inhibition,The samples exhibit significant inhibition ring.,,
3.58,"COc1cc2c(Nc3ccccc3)nnnc2cc1OCCCCl [Example 61, 6-methoxy-7-chloropropoxy-4-anilino-benzo[d][1,2,3]triazine]",No significant inhibition,One sample exhibits inhibition ring at the zone covered by paper.,,

# More lines, now with the values behind:
Compound,Kinase inhibition rate (VEGFR-2) [3],"Rat Aortic Ring Assay (10 ug/ml), result in words [1]",The inhibitory effect on the growth of chorioallantoic membrane vessels [2],inhibition at 10 µg/mL [1] [%],IC50 [4] [µM]
"Fc1ccccc1Nc1nnnc2ccccc12 [Example 3, 4-(2-fluoroanilino)-benzo[d][1,2,3]triazine]",19.78,No significant inhibition,"Significant inhibition in two of three samples,",,
"CCCCOc1cc2nnnc(Nc3cccc(OC(F)(F)F)c3)c2cc1OC [Example 19, 6-methoxy-7-n-butoxy-4-(3-trifluoromethoxyanilino)-benzo[d][1,2,3]triazine]",−56.68,No significant inhibition compared with the blank control.,"Vessels are broken in one of two samples,",,
"CCCCOc1cc2nnnc(Nc3ccc(OC(F)(F)F)cc3)c2cc1OC [Example 20, 6-methoxy-7-n-butoxy-4-(4-trifluoromethoxyanilino)-benzo[d][1,2,3]triazine]",,"Cell proliferation and migration were not significantly affected,","One of the two samples exhibits significant inhibition, and the other",,
"CCCCOc1cc2nnnc(Nc3cccc(Cl)c3)c2cc1OC [Example 21, 6-methoxy-7-n-butoxy-4-(3-chloroanilino)-benzo[d][1,2,3]triazine]",2.40,No significant inhibition,"The vessels covered by paper become thinner, and another embryo is dead.",,
"CCOc1cc2nnnc(Nc3cccc(C(F)(F)F)c3)c2cc1OC [Example 34, 6-methoxy-7-ethoxy-4-(3-trifluoromethylanilino)-benzo[d][1,2,3]triazine]",,,"One of the two samples exhibits significant inhibition zone, and the other",> 80,
"CCOc1cc2nnnc(Nc3cccc(Cl)c3)c2cc1OC [Example 38, 6-methoxy-7-ethoxy-4-(3-chloroanilino)-benzo[d][1,2,3]triazine]",,No significant inhibition,One embryo is dead.,,
"CCOc1cc2nnnc(Nc3ccccc3F)c2cc1OC [Example 41, 6-methoxy-7-ethoxy-4-(2-fluoroanilino)-benzo[d][1,2,3]triazine]",,No significant inhibition,"One embryo is dead, and the other exhibits no significant inhibition",,
"CCOc1cc2nnnc(Nc3cccc(Br)c3)c2cc1OC [Example 42, 6-methoxy-7-ethoxy-4-(3-bromoanilino)-benzo[d][1,2,3]triazine]",,,One of the two samples exhibits inhibition,~40,
"CCCCCOc1cc2nnnc(Nc3ccc(F)cc3)c2cc1OC [Example 59, 6-methoxy-7-pentyloxy-4-(4-fluoroanilino)-benzo[d][1,2,3]triazine]",,No significant inhibition,"The vessels become fewer, but not thinner. The medicine precipitates out.",,
"Clc1ccc(Nc2nnnc3ncc(Cl)cc23)cc1 [Example 83, 6-chloro-4-(4-chloroanilino)pyrido[3,2][1,2,3]triazine]",23.56,No significant inhibition,,,10.5
"Clc1cccc(Nc2nnnc3ccc(Cl)nc23)c1 [Example 88, 6-chloro-4-(3-chloroanilino)pyrido[3,2-d][1,2,3]triazine]",2.39,"Almost complete inhibition (10 μg/mL), vascular ring was dead",,,12.7
